Assay results from patent US9279807B2, “Materials and methods for the treatment of celiac disease” (ALBA THERAPEUTICS CORPORATION, priority 2006, dated 2016).
Entries after “also recorded” stand apart in the source; their conditions may differ. Residues, ends and D or L forms follow the SMILES beside them.

Legend:
[1] = Absorption and systemic toxicity in animals, FITC labeling; type: in vivo
[2] = tested on: Salmonella and E. coli strains; test: Ames test (bacterial reverse mutation assay); settings: up to 5000 μg per plate, with and without metabolic activation
Beagle dogs = test: Toxicity studies in Beagle dogs; type: in vivo, dog
Description: […] […] Any alterations in clinical pathology profiles were considered coincidental in nature. No alterations in absolute or relative organ weight data were detected.

[3] = tested on: human peripheral lymphocytes; test: In vitro chromosome aberration study; settings: up to 1200 μg, with and without metabolic activation
healthy adults [4] = test: Multi-dose safety trial in healthy adults (CLIN1001-003); type: in vivo, human; settings: 24 healthy adults, 250 μg, 1, or 4 mg or placebo three times a day
Description: The multi-dose trial was a double-blind, placebo controlled, randomized trial of 24 healthy adults. […] Reported AEs were all mild and headache was the most common AE.

Celiac Disease subjects = test: Phase IIa multiple dose POC study (CLIN1001-004), safety
Description: Study drug will be dispensed to subjects for fourteen (14) days of treatment. Study drug will be administered three times a day. […] Gluten or gluten placebo will be taken during each meal. Subjects will remain on their gluten-free diet throughout the duration of the trial.
All adverse events reported during the study will be listed, documenting course, severity, and outcome. Adverse events will be summarized by treatment, the MedDRA system organ class, and maximum severity. Laboratory parameters, vital signs, EKG assessments, and physical exam results will be summarized with descriptive statistics as appropriate.

healthy adults [5] = test: Single dose safety trial in healthy adults (CLIN1001-001); type: in vivo, human
Description: The single dose trial was a double-blind, placebo controlled, randomized trial of 24 healthy adults. […] All AEs reported in this study resolved without concomitant therapy. Headache was the most common AE experienced, reported one time each by 3 (13%) subjects.

[6] = Stability of drug substance; type: physicochemical; settings: room temperature
rabbits = test: Cardiovascular effects in unconscious female rabbits; type: in vivo, rabbit; settings: intravenous, doses up to 1 mg/kg
Description: (§1) Two safety pharmacology studies for cardiotoxicity effects have been performed.

[7] = biological target: T1, potassium selective IKr current (hERG) (Homo sapiens, UniProt Q12809); test: hERG test; type: cell-based; settings: up to 1 ng/mL, stably transfected, normoxic conditions
T1 construct: expressed in transfected cells; host or cells: HEK 203 cells (so in the source)
Description: as §1

rats = test: Toxicity studies in rats; type: in vivo, rat
Description: Toxicity studies have been performed in rats and Beagle dogs. […] Any alterations in clinical chemistry, hematology, coagulation, urinalysis and organ weight data were considered coincidental based on absence of dose-response relationships and absence of histopathological changes.

[8] = Plasma drug levels, multi-dose trial; type: in vivo, human; settings: 3 times a day for 10 days; llq 0.5 ng/ml
[9] = dogs, up to 9 mg/kg daily for 4 weeks
[10] = CD subjects, 12 mg once daily Days 1-3, N = 14
[11] = Related = Possible, probably, definite combined causalities, 12 mg, N = 14
[12] = Phase IIa, preliminary observations
[13] = 24 healthy adults, 3, 12, or 36 mg or placebo, single dose
[14] = oral once daily for 28 days up to 1000 mg/kg

T1 sequence (Q12809 whole entry): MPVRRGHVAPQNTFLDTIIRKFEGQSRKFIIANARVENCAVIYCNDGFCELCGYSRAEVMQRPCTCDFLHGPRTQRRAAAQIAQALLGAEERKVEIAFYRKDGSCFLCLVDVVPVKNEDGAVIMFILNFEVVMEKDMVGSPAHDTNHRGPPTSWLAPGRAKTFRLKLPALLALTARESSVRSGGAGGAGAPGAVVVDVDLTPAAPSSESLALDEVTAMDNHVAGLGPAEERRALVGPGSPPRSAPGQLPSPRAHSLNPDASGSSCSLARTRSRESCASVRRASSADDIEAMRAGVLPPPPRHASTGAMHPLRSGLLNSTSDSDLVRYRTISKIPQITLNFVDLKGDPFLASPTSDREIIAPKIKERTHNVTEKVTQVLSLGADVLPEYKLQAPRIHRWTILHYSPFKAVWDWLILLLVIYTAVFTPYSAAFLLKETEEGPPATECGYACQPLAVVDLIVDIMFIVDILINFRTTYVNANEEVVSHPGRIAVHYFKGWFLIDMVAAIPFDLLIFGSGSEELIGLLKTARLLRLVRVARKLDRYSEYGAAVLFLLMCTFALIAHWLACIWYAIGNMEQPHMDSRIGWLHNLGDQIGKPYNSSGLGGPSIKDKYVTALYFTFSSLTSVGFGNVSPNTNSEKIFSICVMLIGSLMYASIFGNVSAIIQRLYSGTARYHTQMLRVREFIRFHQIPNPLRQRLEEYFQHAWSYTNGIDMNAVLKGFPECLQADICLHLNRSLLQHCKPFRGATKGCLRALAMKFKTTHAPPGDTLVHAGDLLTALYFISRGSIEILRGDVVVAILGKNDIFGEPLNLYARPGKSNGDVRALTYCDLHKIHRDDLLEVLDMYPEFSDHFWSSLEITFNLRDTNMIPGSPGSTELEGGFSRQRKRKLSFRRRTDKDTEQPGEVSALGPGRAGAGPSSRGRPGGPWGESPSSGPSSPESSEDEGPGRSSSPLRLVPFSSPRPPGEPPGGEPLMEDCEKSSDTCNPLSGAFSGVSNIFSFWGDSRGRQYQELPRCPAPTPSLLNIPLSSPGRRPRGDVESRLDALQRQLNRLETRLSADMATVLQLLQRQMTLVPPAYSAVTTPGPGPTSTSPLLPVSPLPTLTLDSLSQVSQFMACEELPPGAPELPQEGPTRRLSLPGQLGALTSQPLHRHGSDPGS
Description for CD subjects: One cohort of 24 subjects was planned, with a 2:1 randomization (drug:placebo) for once daily dosing on Days 1, 2 and 3. On Day 2, all subjects would receive a 2.5 gram oral gluten challenge in single blind fashion.
Safety measures included monitoring of AEs, standard clinical panels for chemistry, hematology, and urinalysis, pregnancy screening, EKG, vital signs and physical exam findings.
Spontaneous adverse events collected throughout the study were categorized according to WHO adverse reaction terminology and evaluated for duration, intensity, and possible association with the study drug per ICH guidelines. In addition, the following procedures were performed at various points throughout the course of the study: vital signs, complete physical exams, 12-lead electrocardiograms, full clinical (safety) laboratory analyses, serum pregnancy, urine drug screen and HIV and hepatitis serologies.
All adverse events reported during the study were listed, documenting course, severity, and outcome and summarized by treatment, giving the number of subjects who experienced an adverse event, the maximum severity, and body system. GI adeverse events for each arm were tabulated by subject count and compared via Fisher's exact test.
EKG results were classified as normal and abnormal. PR, RR, QRS, QT, and QTc intervals will be carefully examined and abnormalities tabulated.

In the case of `CC(C)C[C@H](NC(=O)[C@@H](NC(=O)CNC(=O)CN)C(C)C)C(=O)N[C@H](C(=O)N[C@@H](CCC(N)=O)C(=O)N1CCC[C@H]1C(=O)NCC(=O)O)C(C)C` [AT-1001] (H-GGVLVQPG-OH), the “Passage into the submucosa or the vasculature” value ([1]; fluorescent FITC labeling) is reported as “measurable amounts of the antagonist do not cross into the submucosa or the vasculature”, the Systemic toxicities ([1]; supra-therapeutic dosing in animals) is reported as “devoid of significant systemic toxicities” and the Systemic absorption ([1]; supra-therapeutic dosing in animals, multi-particulate oral formulation) is reported as “not systemically absorbed to any significant extent”. The Mutagenic activity [2] was “negative for mutagenic activity”, the Signs of toxicity (Beagle dogs; Beagle dogs, single dose up to 5 mg/kg intravenously, observed 14 days) was “no signs of toxicity were observed” and the “Clinical signs of toxicity” value (Beagle dogs; dogs, enteric-coated beads 20 mg/kg day 1, 40 mg/kg day 2) was “no clinical signs of toxicity were noted”. For the same compound, the “Total protein and globulin levels” value (Beagle dogs; dogs, enteric-coated beads 20 mg/kg day 1, 40 mg/kg day 2, 24 hr after 40 mg/kg) was “slightly elevated”, the “Treatment-related deaths and appearance” value (Beagle dogs; dogs, enteric-coated beads orally up to 9 mg/kg daily for 4 weeks) was “No treatment-related deaths occurred and all dogs appeared normal” and the “Body weights, body weight gains, ophthalmic observations and EKG readings” value (Beagle dogs; [9]) was “unaffected by treatment”. For the same compound, the “Gross necropsy or histopathology findings” value (Beagle dogs; [9]) was “None of the gross necropsy or histopathology findings were considered to be treatment-related”, the “Structural or numerical chromosome aberrations” value [3] was “negative for inducing structural or numerical chromosome aberrations” and the “Overall safety and tolerability” value (CD subjects; 12 mg in CD subjects) was “generally safe, well tolerated”. The “(%) of serious AEs” value (CD subjects; 12 mg, N = 14) was “(0) %”, the “Number of serious AEs” value (CD subjects; 12 mg, N = 14) was 0 and the “Gastrointestinal Disorders, Subject Count (%)” value (CD subjects; 12 mg, N = 14, p 0.018 vs placebo) was 6 (43%). The “Number of subjects reporting an AE” value (CD subjects; CD subjects, 12 mg once daily Days 1-3, 2.5 g gluten Day 2, N = 14) was 10, the “(%) of subjects discontinued study due to AE” value (CD subjects; [10]) was “(0) %” and the “(%) of subjects reporting an AE” value (CD subjects; [10]) was “(71) %”. For the same compound, the “Number of subjects discontinued study due to AE” value (CD subjects; [10]) was 0, the “Total number of AEs reported” value (CD subjects; [10]) was 32 and the “Abdominal Discomfort, Subject Count (%)” value (CD subjects; CD-related, 12 mg, N = 14) was 0 (0%). For the same compound, the “Constipation, Subject Count (%)” value (CD subjects; CD-related, 12 mg, N = 14) was 0 (0%), the “Flatulence, Subject Count (%)” value (CD subjects; CD-related, 12 mg, N = 14) was 2 (14%) and the “Vomiting, Subject Count (%)” value (CD subjects; CD-related, 12 mg, N = 14) was 3 (21%). For the same compound, the “Diarrhoea, Subject Count (%)” value (CD subjects; CD-related, 12 mg, N = 14, p 0.017 vs placebo) was 2 (14%), the “Abnormalities in safety laboratory tests, vital signs, ECG, physical examinations” value (CD subjects; Phase Ib study) was “no clinically significant abnormalities” and the “Deaths, SAEs, significant AEs, withdrawals due to AEs” value (CD subjects; Phase Ib study, 21 CD subjects, 12 mg or placebo for three days) was “no serious adverse events (SAEs); also recorded: no deaths, SAEs, significant AEs, or withdrawals due to AEs”. The “(%) of related AEs” value (CD subjects; [11]) was “(3) %”, the “Number of related AEs” value (CD subjects; [11]) was 1 and the “Dyspepsia, Subject Count (%)” value (CD subjects; not CD-related, 12 mg, N = 14) was 3 (21%). The “Eructation, Subject Count (%)” value (CD subjects; not CD-related, 12 mg, N = 14) was 1 (7%), the “Gastrooesophageal Reflux, Subject Count (%)” value (CD subjects; not CD-related, 12 mg, N = 14) was 1 (7%) and the “Nausea, Subject Count (%)” value (CD subjects; not CD-related, 12 mg, N = 14) was 4 (29%). For the same compound, the “Stomach Discomfort, Subject Count (%)” value (CD subjects; not CD-related, 12 mg, N = 14) was 2 (14%), the Serious adverse events (healthy adults [4]) was “No Serious Adverse Events (SAEs)” and the “Severity of adverse events” value (healthy adults [4]) was “all mild in severity”. For the same compound, the “Safety and tolerability of multiple oral doses” value (Celiac Disease subjects; Phase IIa patient population) was “demonstrated”, the Serious adverse events (Celiac Disease subjects; Phase IIa, 0.25-8 mg TID 14 days, preliminary observations) was “No Serious Adverse Events (SAEs)” and the “Clinically significant trends related to safety” value (Celiac Disease subjects; [12]) was “No Clinically Significant trends related to safety”. The “Severity of adverse events” value (Celiac Disease subjects; [12]) was “mild or moderate in severity”, the Serious adverse events (healthy adults [5]; [13]) was “No Serious Adverse Events (SAEs)” and the “Severity of adverse events” value (healthy adults [5]; [13]) was “mild or moderate in severity”. For the same compound, the “Clinically significant trends (clinical laboratory, vital sign, EKG, physical examination)” value (healthy adults [5]; single dose trial) was “No clinically significant treatment-related trends; also recorded: No Clinically Significant trends related to safety”, the Stability [6] was “up to 1 year” and the solubility was greater than 1000 µg/mL. The “Effects on the EKG” value (rabbits) was “no notable effects”, the “Effect on IKr current” value [7] was “None of the concentrations of AT-1001 caused statistically significant effects” and the “Body weight gain in recovery group” value (rats; 28 day study, males at week 8 (recovery week 4)) was “body weight gain was lower in the dose males at week 8”. For the same compound, the “Treatment-related findings, 14 day repeat-dose study” value (rats; oral gavage once daily for 14 days up to 1000 mg/kg) was “no treatment-related clinical observations, clinical pathology changes, body weight or weight gain changes, organ weight changes, or gross or microscopic tissue changes”, the “Food consumption, body weights/gains, ophthalmic observations” value (rats; [14]) was “unaffected by treatment” and the “Gross necropsy or histopathology findings” value (rats; [14]) was “No gross necropsy or histopathology findings were considered to be treatment-related”. The Treatment-related deaths (rats; [14]) was “No treatment-related deaths occurred”, the “Clinical observations, clinical chemistry, gross postmortem observations” value (rats; single dose intravenously up to 5 mg/kg) was “no clinical observations, clinical chemistry changes, or gross postmortem observations” and the Plasma drug levels [8] was “No measurable plasma drug levels”.
